Measurements published in patent US20080166807A1, “Autologous progenitor stem cells of gastrointestinal origin” (priority 2005, published 2008).
“And” between values parts separate entries of the source, which are not always exact repeats. Equal entries are not always repeated.

Test system: GIP-C cells
Assay: Attachment factors study with subcultured GIP-C cells (cell counts in supernatant and of attached cells)
Type: cell-based
Settings: for Cell counts in Supernatant, 5-8 μm / Cell counts of Attached cells, 2-5 μm / Cell counts in Supernatant, 2-5 μm / Cell counts of Attached cells, 5-8 μm: wells coated with attachment factor, RPMI 1640 media with supplements, two wells each; for Attaching of cells from 2-5 μm (comparison of attachment factors): cells 2-5 μm
Experimental: Two of the six well plates were coated with the following attachment factors: Collagen type IV, Fibronectin, Superfibronectin, ECM gel and Laminin. Collagen type IV (2 mg/ml) was made by dissolving 0.75 mg of collagen in 375 μl of sterilized 0.25% acetic acid. Collagen type IV (187.5 μl) was used to coat two wells and Incubated overnight at 2-8° C. Fibronectin (250 μl of 10 μg/ml) was used to coat each well and air-dried at room temperature for 45 minutes. Superfibronectin (250 μl of 5 μg/ml) was used to coat each well and incubated at 37° C. for two hours. The wells were then washed twice with 100 μl of PBS, and left to air dry in a laminar flow hood. ECM gel was thawed overnight before use; 250 μl of ECM gel was mixed with 250 μl of cold DMEM medium before using 250 μl of the mixture to coat precooled wells. The ECM gel was then left for five minutes at 20° C. for the gel to polymerize. An aliquot of 200 μg/200 μl of laminin was thawed at 4° C. for 2-4 hrs before making a dilution using 36 μl of stock solution and diluting it with 464 μl of sterile PBS. Laminin (250 μl, 18 μg/well) was used to coat each well. The plates with laminin were then air-dried for 45 minutes. All of the plates containing the attachment factors were sterilized overnight by exposure to UV light in a sterile tissue culture hood.
RPMI 1640 media (250 ml) was obtained from Invitrogen (11875-085), to which the following supplements were added: 100 ng/ml of cholera-toxin (Sigma, C8052), 500 ng/ml of hydrocortisone (Sigma, H0888), 5% of heat inactivated horse serum (Gibco, 16050-130) and 25 ml of Mesenchymal supplement (Stemcell technologies, 05402). After the media was filter sterilized and aliquots of 26 ml were made, they were stored at 4° C.
RPMI 1640 media with all the supplements was warmed at 37° C. Two ml of the media was added to each well containing the attachment factors along with 3 control wells which contained no attachment factors. Cells previously subcultured in mesencult medium were pelleted and divided into 100,000 cells per well and incubated at 37° C. The cells were observed under a phase-contrast microscope. Once, every two days the top layer containing the unattached GIP-C cells was removed, washed and resuspended in freezing media. Two ml of RPMI 1640 media with the supplements was added to the wells and incubated at 37° C.
The gastrointestinal progenitor cells in culture were found mostly in suspension in the culture media. In order to test the adherence of these cells a study was conducted where they were plated on tissue culture wells coated with each of the five different epithelial cell attachment factors: collagen type IV, laminin, superfibronectin, fibronectin, and ECM gel. There were three control wells with no attachment factors in them.

Fibronectin
Cell counts in Supernatant, 5-8 μm: 68340 Cells/ml and 63918 Cells/ml | Cell counts of Attached cells, 2-5 μm: 68340 Cells/ml

Laminin
Cell counts in Supernatant, 2-5 μm: 4.09E+07 Cells/ml and 3.04E+07 Cells/ml | Cell counts in Supernatant, 5-8 μm: 90048 Cells/ml and 84822 Cells/ml | Cell counts of Attached cells, 2-5 μm: 974448 Cells/ml and 643602 Cells/ml | Cell counts of Attached cells, 5-8 μm: 40602 Cells/ml and 43416 Cells/ml

Collagen type IV
Attaching of cells from 2-5 μm (comparison of attachment factors): seemed to be better at attaching cells | Cell counts in Supernatant, 2-5 μm: 1.22E+07 Cells/ml and 1.60E+07 Cells/ml | Cell counts of Attached cells, 2-5 μm: 2.25E+06 Cells/ml and 1.19E+06 Cells/ml | Cell counts of Attached cells, 5-8 μm: 57486 Cells/ml

Superfibronectin
Attaching of cells from 2-5 μm (comparison of attachment factors): seemed to be better at attaching cells | Cell counts in Supernatant, 2-5 μm: 3.96E+07 Cells/ml and 5.06E+07 Cells/ml | Cell counts in Supernatant, 5-8 μm: 67536 Cells/ml and 54672 Cells/ml | Cell counts of Attached cells, 2-5 μm: 1.62E+06 Cells/ml and 1.35E+06 Cells/ml
